Values quoted from earlier work in patent US9085793B2, “Ex vivo methods to identify circulating drug metabolites with drug interaction potential” (XPD Consulting, LLC, priority 2012, dated 2015).
Read-outs that look alike come from different tables or passages of the source.

Key:
CYP3A [1] = conditions: CYP 3A; in vivo inhibitory potential of metabolite over that of parent drug
CYP3A [2] = test system: T1, CYP3A; conditions: CYP 3A; metabolite
T1 construct: rows headed: Ki Parent Drug (P); other: CYP 3A; parent drug; Ki Metabolite (M); metabolite; [I]/Ki Parent Drug (P); [I]/Ki Metabolite (M)

CYP2D6 [3] = biological target: T2, CYP2D6 (Homo sapiens, UniProt P10635); conditions: CYP 2D6; for IPM/IPP: in vivo inhibitory potential of metabolite over that of parent drug; for Ki: read-out: Ki Metabolite, metabolite
T2 sequence (P10635 whole entry): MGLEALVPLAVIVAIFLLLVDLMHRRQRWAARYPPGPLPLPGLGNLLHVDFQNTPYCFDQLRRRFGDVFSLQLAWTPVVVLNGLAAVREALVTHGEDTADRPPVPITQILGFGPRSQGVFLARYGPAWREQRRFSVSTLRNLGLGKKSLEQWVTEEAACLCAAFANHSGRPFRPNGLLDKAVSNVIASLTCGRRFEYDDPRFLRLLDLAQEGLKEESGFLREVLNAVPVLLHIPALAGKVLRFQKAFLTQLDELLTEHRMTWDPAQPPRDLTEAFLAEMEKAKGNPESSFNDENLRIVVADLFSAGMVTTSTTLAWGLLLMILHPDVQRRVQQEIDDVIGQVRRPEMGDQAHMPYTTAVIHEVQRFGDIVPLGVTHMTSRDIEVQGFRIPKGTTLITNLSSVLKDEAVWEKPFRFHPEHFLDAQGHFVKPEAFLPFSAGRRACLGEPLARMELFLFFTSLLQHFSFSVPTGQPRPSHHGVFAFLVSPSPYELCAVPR

CYP2C9 [4] = biological target: T3, CYP2C9 (Homo sapiens, UniProt P11712)
T3 sequence (P11712 whole entry): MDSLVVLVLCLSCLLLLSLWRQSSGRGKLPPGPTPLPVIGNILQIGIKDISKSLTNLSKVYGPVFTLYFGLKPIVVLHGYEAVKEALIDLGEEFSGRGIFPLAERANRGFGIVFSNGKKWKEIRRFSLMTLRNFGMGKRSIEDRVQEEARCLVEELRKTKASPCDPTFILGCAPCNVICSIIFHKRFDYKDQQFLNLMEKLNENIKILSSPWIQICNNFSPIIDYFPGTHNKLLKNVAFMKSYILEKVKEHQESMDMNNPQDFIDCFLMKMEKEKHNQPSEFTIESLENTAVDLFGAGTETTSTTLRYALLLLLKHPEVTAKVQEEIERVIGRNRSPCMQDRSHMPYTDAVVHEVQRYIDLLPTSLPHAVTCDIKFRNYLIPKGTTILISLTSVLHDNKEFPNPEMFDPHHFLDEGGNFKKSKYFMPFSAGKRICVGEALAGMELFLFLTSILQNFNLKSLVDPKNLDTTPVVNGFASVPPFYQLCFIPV

[5] = in vivo
CYP2C9 [6] = biological target: T3, CYP2C9; remark: listed apart in the source
CYP3A4 = CYP3A4 (Homo sapiens, UniProt P08684); conditions: human hepatocytes
Sequence of CYP3A4 (P08684 whole entry): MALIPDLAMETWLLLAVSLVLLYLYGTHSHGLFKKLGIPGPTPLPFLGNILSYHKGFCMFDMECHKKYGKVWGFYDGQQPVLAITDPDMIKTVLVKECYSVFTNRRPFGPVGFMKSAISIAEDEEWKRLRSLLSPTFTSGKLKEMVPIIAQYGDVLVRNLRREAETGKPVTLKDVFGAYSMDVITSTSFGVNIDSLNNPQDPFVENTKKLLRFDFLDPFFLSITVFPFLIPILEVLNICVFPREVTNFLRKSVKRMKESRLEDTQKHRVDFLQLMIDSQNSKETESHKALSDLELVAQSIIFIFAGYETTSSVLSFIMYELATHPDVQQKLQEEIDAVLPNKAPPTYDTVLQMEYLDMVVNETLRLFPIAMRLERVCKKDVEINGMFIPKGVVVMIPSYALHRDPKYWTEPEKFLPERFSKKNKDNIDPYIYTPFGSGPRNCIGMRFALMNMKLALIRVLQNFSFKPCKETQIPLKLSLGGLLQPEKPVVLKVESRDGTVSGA

CYP2D6 [7] = biological target: T2, CYP2D6; conditions: human hepatocytes
CYP2C9 [8] = biological target: T3, CYP2C9; conditions: read-out: Ki Metabolite, CYP 2C9
CYP2D6 [9] = biological target: T2, CYP2D6; conditions: human liver microsomes
[10] = circulating plasma level (in vivo concentration) of metabolite

SMILES | [I] Metabolite (M) [10] [M] | IPM/IPP (CYP2D6 [3]) | Ki (CYP2D6 [3]) [µM] | also measured
CC(C)c1c(C(=O)Nc2ccccc2)c(-c2ccccc2)c(-c2ccc(F)cc2)n1CC[C@@H]1C[C@@H](O)CC(=O)O1 [Atorvastatin lactone] | 3e-09 |  |  | IPM/IPP (CYP3A [1]): 5.5; Ki (CYP3A [2]): 0.9 µM
CCNCc1cc(Nc2ccnc3cc(Cl)ccc23)ccc1O [Desethylamodiaquine] | 8.2e-07 | 5.1 | 4.1 | 
O=C(O)Cc1ccccc1Nc1c(Cl)cccc1Cl [Diclofenac] |  |  |  | Increase in Km on adding plasma (in words, FIG. 6) (CYP2C9 [4]): relatively large increase in Km; Increase in Km on addition of plasma (CYP2C9 [4]): more than 40 fold
CC(NC(C)(C)C)C(O)c1cccc(Cl)c1 (centres unmarked) [Erythrobupropion] | 3.7e-07 | 15.3 | 1.7 | 
CNCCC(Oc1ccc(C(F)(F)F)cc1)c1ccccc1 (centres unmarked) [Fluoxetine] |  |  |  | Plasma half-life [5]: 96 to 140 h
C[C@H]1NC(C)(C)CO[C@]1(O)c1cccc(Cl)c1 [Hydroxybupropion] | 3.2e-06 | 17.0 | 13 | 
Clc1ccc(COC(Cn2ccnc2)c2ccc(Cl)cc2Cl)c(Cl)c1 (centres unmarked) [Miconazole] |  |  |  | IC50 (CYP2C9 [6]): 2.02 ± 0.37 µM; IC50 (CYP2C9 [6]; hepatocytes): 2.12 ± 0.37 µM
Cc1ncc2n1-c1ccc(Cl)cc1C(c1ccccc1F)=NC2 [Midazolam] |  |  |  | Increase in Km (CYP3A4; plasma versus medium): 5.7 fold; Km (CYP3A4; read-out: Km Medium, cell culture medium (HMM)): 8.11 ± 0.65 µM; Km (CYP3A4; read-out: Km Plasma, human plasma): 45.8 ± 4.38 µM
CCCCc1oc2ccccc2c1C(=O)c1cc(I)c(OCCNCC)c(I)c1 [N-Desethylamiodarone] |  |  |  | [I] Metabolite (M) (in vivo): 1.5e-06 M
CNCCCN1c2ccccc2CCc2ccc(Cl)cc21 [N-Desmethylclomipramine] |  | 4.2 | 7.9 | [I] Metabolite (M) (in vivo): 4.9e-07 M
CNCC(c1ccc(OC)cc1)C1(O)CCCCC1 (centres unmarked) [N-Desmethylvenlafaxine] |  |  |  | [I] Metabolite (M) (in vivo): 9.3e-07 M
NCCC(Oc1ccc(C(F)(F)F)cc1)c1ccccc1 (centres unmarked) [Norfluoxetine] |  |  | 0.2 | Plasma half-life [5]: about 16 days
Cc1nc2n(c(=O)c1CCN1CCC(c3noc4cc(F)ccc34)CC1)CCCC2O (centres unmarked) [Paliperidone] | 4.6e-08 | 1.0 | 16 | IPM/IPP (CYP3A [1]): 2.0; Ki (CYP3A [2]): 80 µM
OC(CCCN1CCC(O)(c2ccc(Cl)cc2)CC1)c1ccc(F)cc1 (centres unmarked) [Reduced haloperidol] | 8e-09 | 1.3 | 0.24 | 
CN[C@H]1CC[C@@H](c2ccc(Cl)c(Cl)c2)c2ccccc21 [Sertraline] |  |  |  | IC50 (CYP2D6 [7]; human plasma, read-out: IC50 Plasma): 13.1 ± 3.49 µM; IC50 (CYP2D6 [7]; medium, read-out: IC50 Medium): 3.1 ± 0.34 µM
Nc1ccc(S(=O)(=O)Nc2ccnn2-c2ccccc2)cc1 [Sulfaphenazole] |  |  |  | IC50 increased on addition of plasma (CYP2C9 [6]; addition of plasma to human hepatocytes or human liver microsomes): more than 10 fold
O=C1C(CCSc2ccccc2)C(=O)N(c2ccccc2)N1c1ccccc1 [Sulfinpyrazone sulfide] |  |  |  | Ki (CYP2C9 [8]): 27 µM
C[C@H](NC(C)(C)C)[C@@H](O)c1cccc(Cl)c1 [Threobupropion] | 1.9e-06 | 24.8 | 5.4 | 
COc1ccc2c(c1)[C@]13CCCC[C@@H]1[C@H](C2)N(C)CC3 [dextromethorphan] |  |  |  | Increase in Km on adding plasma (in words, FIG. 6) (CYP2D6 [9]): relatively small increase in Km; Increase in Km on addition of plasma (CYP2D6 [9]): less than six
